The viability, T/C is the ratio of treated to control. Usually IC50 stands for the point on the concentration scale where inhibition reaches its midpoint.

SMILES strings stand for the structures. Where “and” joins values, the source holds several entries; their conditions need not be identical. Equal entries are not always repeated. Where only a bound is given, the exact number is not on record here.

For this test, the system named is 636577-100-R-J1-PDC complex spheroid viability. The test can be described thus: Anticancer human tumor 636577-100-R-J1-PDC patient-derived endometrial adenocarcinoma cell line growth inhibition [GQUAD]. The note with it: for viability, T/C: stronger effect = lower value. The text has this:
DNA G-quadruplex Stabilizer Agents in Combinations in Complex Spheroids
A high-throughput screen of multi-cell type tumor spheroids was designed to identify active combinations of DNA G-quadruplex stabilizer agents and targeted small molecules. Complex spheroids include a stromal component modeled by human endothelial cells (HUVEC) and fibroblasts modeled by human mesenchymal stem cells (MSCs). The concentration ranges selected for each drug and investigational agent were based upon clinically achievable concentrations if the clinical Cmax of the agent was known.
Compounds. The drugs and investigational agents: pidnarulex (CX-5461; NSC782164), APTO-253 (NSC789042), BRACO-19 (NSC847499), peposertib (NSC802822), ceralasertib (NSC780249), elimusertib (NSC800525), camonsertib (NSC841442), AZD-1390 (NSC803789), olaparib (NSC753686), talazoparib (NSC767125), ART-558 (NSC835418), sotorasib (NSC818433), MRTX-1133 (NSC836407), SN-38 (NSC673596), topotecan (NSC609699), etoposide (NSC141540), doxorubicin (NSC123127), gemcitabine (NSC613327), 5-fluorouracil (NSC19893), paclitaxel (NSC125973), vemurafenib (NSC761431), panobinostat (NSC761190), R-306465 (JNJ-16241199; NSC773264), adavosertib (NSC754352), TP-3654 (NSC805149), carboplatin (NSC241240), KSQ-4279 (NSC840948), and staurosporine (NSC755774) were obtained from the National Cancer Institute (NCI) Developmental Therapeutics Program Chemical Repository (34). The FDA-approved anticancer drug set is available from the NCI Developmental Therapeutics Program. […] The stock solutions were prepared in dimethyl sulfoxide (DMSO, Sigma-Aldrich, St. Louis, MO, cat. D2650) at 800-fold the tested concentration and stored at -70 degrees C prior to their use. All drugs and investigational agents were tested over a range starting from a high concentration at or near the clinical Cmax and decreasing in half-log increments. If the clinical Cmax for an agent had not been determined, the highest concentration tested was 10 microM.
2.3 Cell Culture. All cells were maintained in an incubator at 37 degrees C and 5% CO2 with 95% humidity. The PDC lines were cultured according to standard operating procedures established by the NCI PDMR. All PDCs were thawed and cultured in Matrigel-coated flasks prepared with a working solution of 1X Ham's F-12 nutrient mix, without supplementation (Invitrogen, cat. 11765054), 100 U/mL penicillin-streptomycin (Invitrogen, cat. 15140122), and 2.5% Matrigel (Corning Inc., cat. 354248) for the first three passages. The 857933-349-R-J2-PDC line was cultured in 6C/Colon 1B media, which includes advanced DMEM/F-12 (Thermo Fisher Scientific, cat. 12634028), 10 mM HEPES (Thermo Fisher Scientific, cat. 15630080), 1X GlutaMAX supplement (Thermo Fisher Scientific, cat. 35050061), 0.1 mg/mL primocin (InvivoGen, cat. ant-pm-2), 10% defined fetal bovine serum, heat inactivated (HyClone Laboratories Inc., cat. SH30070.03HI), 50% L-WRN conditioned media (ATCC, cat. CRL-3276), 1.25 mM N-Acetyl-L-cysteine (Sigma-Aldrich, cat. A9165), 10 mM nicotinamide (Sigma-Aldrich, cat. N0636), 1X B-27 supplement (Thermo Fisher Scientific, cat. 17504044), 1X N-2 supplement (Thermo Fisher Scientific, cat. 17502048), 10 microM Y-27632 dihydrochloride (Tocris Bioscience, cat. 1254), and 50 ng/mL human EGF recombinant protein (Thermo Fisher Scientific, cat. PHG0311). The 485176-168-R4-J1-PDC line was cultured in Panc media, which includes all 6C/Colon 1B media components plus 100 ng/mL human FGF-10 (Thermo Fisher Scientific, cat. 100-26), 500 nM SB-431542 (Selleckchem, cat. S1067), and gastrin (Tocris, cat. 3006).
[…]
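Also: viability read after seven days of drug exposure.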
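For viability, T/C in this document: luminescence signal used as a proxy for viable cells; 100% = DMSO vehicle control wells.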

On to `C#Cc1c(F)ccc2cc(O)cc(-c3ncc4c(N5CC6CCC(C5)N6)nc(OCC56CCCN5CC(F)C6)nc4c3F)c12` (centres undefined), for which the viability, T/C was 99.5% and 96.3% and 104% (compound 0.0316 µM); 88.7% and 68.7% and 103% (compound 0.1 µM); 77.1% and 102% and 113% (compound 0.316 µM); 83% and 87.9% and 71.9% (compound 1 µM); 66.9% and 56.5% and 70.4% (compound 3.16 µM); 49.2% and 39.9% and 35.7% (compound 10 µM). Moreover, the IC50 (curve of compound) is > 10000 nM and 4970 nM and 5760 nM.
In the case of `CC(C)(O)C1CCC(Nc2ccc3ncc(-c4cccc(C(F)(F)F)c4)n3n2)CC1` (centres undefined), the viability, T/C by setting is: (compound 0.0316 µM) 102% and 104% and 81.5%; (compound 0.1 µM) 86.4% and 84.5% and 92.3%; (compound 0.316 µM) 93.7% and 109% and 93.8%; (compound 1 µM) 67.9% and 78.7% and 42.9%; (compound 3.16 µM) 29.4% and 26.8% and 30.6%; (compound 10 µM) 35.9% and 36.4% and 44.3%. Further, under “curve of compound”, the IC50 was 1790 nM and 2020 nM and 839 nM.
Turning to `Cc1cnc(CNC(=O)c2c(=O)c3ccc(N4CCCN(C)CC4)nc3n3c2sc2ccccc23)cn1`, the viability, T/C was 50.9% [middle of 10 runs] (compound 0.0316 µM); 29.8% [middle of 10 runs] (compound 0.1 µM); 26.9% [middle of 10 runs] (compound 0.316 µM); 24.9% [middle of 10 runs] (compound 1 µM); 22.2% [middle of 10 runs] (compound 3.16 µM); 20.8% [middle of 10 runs] (compound 10 µM).
On to `CC1COCCN1c1cc(-c2ccnn2C)c2ccnc(-c3ccn[nH]3)c2n1` (centres undefined) + Cc1[nH]c2ccc(F)cc2c1-c1nc2c3cccnc3c3ncccc3c2[nH]1, for which the IC50 is 96.7 nM (curve of first compound, second compound 0.0316 µM); 84.9 nM (curve of first compound, second compound 0.1 µM); 105 nM (curve of first compound, second compound 0.316 µM); less than 31.6 nM (curve of first compound, second compound 1 µM); less than 31.6 nM (curve of first compound, second compound 3.16 µM); less than 31.6 nM (curve of first compound, second compound 10 µM). Further, the viability, T/C was 89.7% (second compound 0.0316 µM, first compound 0.0316 µM); 48.1% (second compound 0.0316 µM, first compound 0.1 µM); 26.9% (second compound 0.0316 µM, first compound 0.316 µM); 10.8% (second compound 0.0316 µM, first compound 1 µM); 7.12% (second compound 0.0316 µM, first compound 3.16 µM); 4.03% (second compound 0.0316 µM, first compound 10 µM). The viability, T/C was 59.4% (second compound 0.1 µM, first compound 0.0316 µM); 49.1% (second compound 0.1 µM, first compound 0.1 µM); 23.9% (second compound 0.1 µM, first compound 0.316 µM); 11.4% (second compound 0.1 µM, first compound 1 µM); 8.62% (second compound 0.1 µM, first compound 3.16 µM); 4.31% (second compound 0.1 µM, first compound 10 µM). The viability, T/C is, setting by setting: (second compound 0.316 µM, first compound 0.0316 µM) 59.4%; (second compound 0.316 µM, first compound 0.1 µM) 52.9%; (second compound 0.316 µM, first compound 0.316 µM) 25.8%; (second compound 0.316 µM, first compound 1 µM) 14.5%; (second compound 0.316 µM, first compound 3.16 µM) 8.77%; (second compound 0.316 µM, first compound 10 µM) 4.31%. For the same compound, the viability, T/C runs as follows: (second compound 1 µM, first compound 0.0316 µM) 39%; (second compound 1 µM, first compound 0.1 µM) 32.5%; (second compound 1 µM, first compound 0.316 µM) 23%; (second compound 1 µM, first compound 1 µM) 15%; (second compound 1 µM, first compound 3.16 µM) 8.69%; (second compound 1 µM, first compound 10 µM) 3.56%. Besides, the viability, T/C was 16.9% (second compound 3.16 µM, first compound 0.0316 µM); 18.7% (second compound 3.16 µM, first compound 0.1 µM); 15.5% (second compound 3.16 µM, first compound 0.316 µM); 9.23% (second compound 3.16 µM, first compound 1 µM); 6.94% (second compound 3.16 µM, first compound 3.16 µM); 3.78% (second compound 3.16 µM, first compound 10 µM). For the same compound, the viability, T/C is, setting by setting: (second compound 10 µM, first compound 0.0316 µM) 41.6%; (second compound 10 µM, first compound 0.1 µM) 24.7%; (second compound 10 µM, first compound 0.316 µM) 20.6%; (second compound 10 µM, first compound 1 µM) 13.2%; (second compound 10 µM, first compound 3.16 µM) 8.7%; (second compound 10 µM, first compound 10 µM) 4.88%.
Regarding `CC1COCCN1c1cc(C2(O)CC3CCC(C2)O3)c2cnn(-c3ccn[nH]3)c2n1` (centres undefined), the viability, T/C is 45.5% and 69.8% and 52.9% (compound 0.0316 µM); 36.3% and 25.4% and 31.3% (compound 0.1 µM); 18.9% and 15.5% and 18% (compound 0.316 µM); 8.03% and 6.74% and 6.72% (compound 1 µM); 3.6% and 2.83% and 2.96% (compound 3.16 µM); 1.1% and 0.71% and 1.08% (compound 10 µM). Moreover, for the setting “curve of compound”, the IC50 was < 31.6 nM and 54.1 nM and 36.7 nM.

The values above are taken from PubChem BioAssay AID2060504 (Molecular Pharmacology Branch, DTP, NCI, 2025).
